Assay: Biodistribution of radiolabelled DTPA complexes in normal rats, compared with 99mTc-DTPA positive control
Type: in vivo
Settings: normal Sprague-Dawley rats; 111In-labelled complex
Experimental: Commercially available DTPA kit (Draximage Co., Ontario, Canada) was labeled with ^99mTc by the standard procedure described in the package insert that was supplied with the kit, and was administered to Sprague-Dawley rats (3 rats for each time point of 15 minutes, 60 minutes, 120 minutes, and 24 hours).
A mixture of the stock solution of DTPA-mono(7-amino-4-methylcoumarin)amide ligand (1 mg/mL in 0.5M sodium acetate buffer, 100 μL), obtained from Gunma University, Japan (Ozaki, et. al. Reference 30), sodium acetate solution (0.5M, 100 μL), and commercially available ^111InCl3 solution (0.1M HCl, 100-200 μCi/100 μL) was adjusted to pH 4.5 and incubated at ambient temperature for 30 minutes. The resulting indium complex was purified by reverse phase HPLC and administered to Sprague-Dawley rats. The biodistribution was carried out in the same manner as that of ^99mTc-DTPA in Example 1 (FIG. 8).

Substance	hepatobiliary clearance (relative to reference complex)
^111In-HMDTPA-1-naphthylurethane complex [Example 5]	much higher hepatobiliary clearance

Same assay, conditions: normal Sprague-Dawley rats; time points 15 minutes, 60 minutes, 120 minutes, 24 hours; 111In-labelled complex

Substance	biodistribution of the complex (comparison with reference complex)
^111In-DTPA-mono(quinoxanylamino)ethylamide complex [Example 8]	nearly identical to that of the DTPA-coumarin derivative in Example 2
^111In-DTPA-mono(salicylamide) complex [Example 3]	nearly identical to that of ^99mTc-DTPA

The remaining lines, values ahead:

biodistribution of the complex (comparison with reference complex)	Substance
nearly identical to that of ^99mTc-DTPA	^111In-DTPA-bis(salicylamide) complex [Example 6]
nearly identical to that of ^99mTc-DTPA	^111In-DTPA-mono(1-naphthylamide) complex [Example 4]
nearly identical to that of ^99mTc-DTPA	^111In-DTPA-mono(pyrazinylamino)ethylamide complex [Example 7]

— patent publication US7674902B2, “Luminescent metal complexes for monitoring renal function” (priority 2004, dated 2010)
